The values that follow come from paper PMC7344659, “Bioactivity of Spongian Diterpenoid Scaffolds from the Antarctic Sponge Dendrilla antarctica” (Marine Drugs, 2020).

Where two headings read alike, the source gives them in different places. Where only a bound is given, the exact number is not on record here.

In data set [1] the test system is primary human hepatocytes. As to the kind of experiment: Cytotoxicity towards uninfected primary human hepatocytes. The data set is classed as cell-based. The following applies: for inhibition at 5 µg/mL: Hepatocyte, 5 μg/mL, uninfected primary human hepatocytes, % (Standard Deviation), n = 3, read-out: Plasmodium falciparum Inhibition at 5 μg/mL Uninfected PHHs. The method, then:
(§1) The full suite of Dendrilla antarctica-derived compounds, with the exception of darwinolide (1) and dendrillin D (12) owing to mass limitations, were tested against Leishmania donovani infected macrophages, liver-stage sporozoites in primary human hepatocytes, and against MRSA biofilm. Cytotoxicity was evaluated using the mammalian J774A.1 cell line in L. donovani-active compounds, while primary human hepatocytes were evaluated for malaria-active compounds.
(§2) For the Plasmodium falciparum infected liver cells, screening was conducted at a fixed concentration of 5 µg/mL for each compound, and activities representing 60% inhibition and 100% inhibition are reported in comparison with the positive control primaquine. […] Aplysulphurin (2) at ≤13 μM was also active at the highest level.
(§3) The liver-stage Plasmodium falciparum assay was conducted as previously reported.

Data set [2] has as its system Plasmodium falciparum. In words: Liver-stage Plasmodium falciparum assay in primary human hepatocytes. It counts as cell-based. The settings on record: for inhibition at 5 µg/mL: Plasmodium falciparum, Hepatocyte, 5 μg/mL, infected primary human hepatocytes, % (Standard Deviation), n = 3, read-out: Plasmodium falciparum Inhibition at 5 μg/mL Infected PHHs; for concentration with modest activity (60% inhibition) against P. falciparum infected liver cells: 60% inhibition level. The method, then:
as §1, §2, §3

In data set [3] the test system is MRSA biofilm. As to the kind of experiment: MRSA biofilm eradication assay. The data set is classed as cell-based, methicillin-resistant Staphylococcus aureus. The settings on record: for inhibition at 25 µg/mL / inhibition at 50 µg/mL / inhibition at 100 µg/mL: Staphylococcus aureus, MRSA, % (Std. Dev.), n = 6; for inhibition at 25 µg/mL: 25 μg/mL; for inhibition at 50 µg/mL: 50 μg/mL; for inhibition at 100 µg/mL: 100 μg/mL; for concentration at which activity against MRSA biofilm was exhibited: eradication level not given. The method, then:
The MRSA biofilm assay was carried out at concentrations of 100, 50, and 25 µg/mL for each compound, and activities representing 50% and 90% eradication are reported.
The MRSA biofilm assay was conducted as previously reported.

Data set [4] relates to J774A.1 macrophages. As to the kind of experiment: J774A.1-cell cytotoxicity assay (uninfected macrophage). It counts as cell-based. The settings on record: Mus musculus, J774.A1; cytotoxicity, uninfected J774A.1 macrophages; single point determination; read-out: Leishmania donovani IC50 Uninfected Macrophage. The method, then:
as §1
(§4) The Leishmania donovani cell line infected macrophage assay and cytotoxicity screen were conducted as previously described.

In data set [5] the test system is Leishmania donovani. In words: Leishmania donovani infected macrophage assay. It counts as cell-based. The method, then: as §1
The results from the Leishmania donovani assay (Table 2) indicate activity commensurate with the positive control and current standard of care, miltefosine (2.9 µM) is observed in aplysulphurin (2, 3.1 μM), tetrahydroaplysulphurin-1 (4, 3.5 μM), dendrillin B (10, 3.5 μM), 8-ketodihydrogracilin (13, 4.5 μM), and triol 15 (4.5 μM).
as §4

A short description of data set [6]: J774A.1-cell cytotoxicity assay (uninfected macrophage). The data set is classed as cell-based. The following applies: mouse, J774A.1 macrophage cells (uninfected); Table 3; unit not given (μM in Table 2); read-out: J774 Cytotoxiciy. The method, then: as §1, §4
Data set [7] deals with Leishmania donovani. More on the design: method as in PMID 32281798. The following applies: ref [15], cited from earlier work.
Data set [8] has as its system J774A.1 macrophages. More on the design: method as in PMID 32281798. The settings on record: ref [15], cited from earlier work.
The mark [9] stands for this setting: Leishmania donovani, J774.A1, J774A.1 macrophages, single point determination, read-out: Leishmania donovani IC50 Infected Macrophage.
Where [10] appears, read: J774A.1 macrophages, single point determination, read-out: Leishmania donovani IC50 Infected Macrophage.
Where [11] appears, read: cytotoxicity, uninfected J774A.1 macrophages, single point determination, read-out: Leishmania donovani IC50 Uninfected Macrophage.
Setting [12] is: Leishmania donovani, Macrophage, Table 3, unit not given (μM in Table 2), read-out: Pathogen Activity, Leishmania donovani.

Regarding `CC(=O)O[C@@H]1O[C@H](OC(C)=O)[C@@H]2[C@H]1CC[C@H](/C(C)=C1/CCCC1(C)C)C2(C)C` [Compound 7], the inhibition at 5 µg/mL in data set [1] amounted to 0.7%. Moreover, the inhibition at 5 µg/mL in data set [2] came to 39.3%. Moreover, in data set [3], the inhibition at 25 µg/mL came to 3.9%, the inhibition at 50 µg/mL was found to be 28.7% and the inhibition at 100 µg/mL was determined as 2.9%. Further, the IC50 in data set [4] was found to be 18 µM. In addition, the IC50 in data set [5] (setting [9]) is 14 µM.

For `CC(=O)OC1OC(OC(C)=O)C2C1CCC(C1(C)CCCC(C)(C)C1)C21OC1C` (centres unmarked) [Dendrillin A (9), dendrillin A], in data set [1], the inhibition at 5 µg/mL came out at 2.9%. The inhibition at 5 µg/mL in data set [2] was 4.3%. In data set [3], this compound came in with an inhibition at 25 µg/mL of 0%, an inhibition at 50 µg/mL of 0% and an inhibition at 100 µg/mL of 0%. Besides, the IC50 in data set [4] worked out at 9 µM. Besides, the IC50 in data set [5] (setting [9]) came out at 6 µM.

Take `CCC1=C(C=O)[C@H](C(=O)OC)CC[C@@H]1[C@@]1(C)CCCC(C)(C)C1` (relative stereo) [Dendrillin C (11), dendrillin C]: the inhibition at 5 µg/mL in data set [1] came to 3.4%; in data set [2] it was 1.3%. This compound gave an inhibition at 25 µg/mL in data set [3] of 84%. This compound showed an inhibition at 50 µg/mL in data set [3] of 97.8%. The compound also had an inhibition at 100 µg/mL in data set [3] of 99.2%. Besides, in data set [3] (Table 3, no unit printed there (58 μM)), the “Pathogen Activity, MRSA Biofilm” value is on record as 78. Moreover, the “concentration achieving 50% eradication of MRSA biofilm” value in data set [3] (tested at 100, 50 and 25 µg/mL, 50% eradication) is 25 µg/mL. Moreover, the “concentration at which activity against MRSA biofilm was exhibited” value in data set [3] (tested at 100, 50 and 25 µg/mL) is 50 µg/mL. The IC50 in data set [4] was above 160 µM; in data set [6] it was above 160 µM; in data set [5] (setting [9]), above 31 µM.

As for `CC(=O)OC1OC2OC(=O)C(C)C3=C(C4(C)CCCC(C)(C)C4)CCC1C32` (centres unmarked) [Tetrahydroaplysulphurin-1 (4), tetrahydroaplysulphurin-1], the inhibition at 5 µg/mL in data set [1] was determined as 3%; in data set [2] it was 66.7%. Also, the “concentration with modest activity (60% inhibition) against P. falciparum infected liver cells” value in data set [2] (screen at fixed 5 µg/mL) was at most 13 µM. Moreover, the inhibition at 25 µg/mL in data set [3] is 35%. The same compound had an inhibition at 50 µg/mL in data set [3] of 31.1%. The same compound showed an inhibition at 100 µg/mL in data set [3] of 20.8%. Besides, the IC50 is 3.5 µM in data set [7] (setting [10]); 3.5 µM in data set [7] (Table 3, unit not given (μM in Table 2), read-out: Pathogen Activity, Leishmania donovani); above 130 µM in data set [8] (Table 3, no unit printed there, same values marked as from reference in Table 2, read-out: J774 Cytotoxiciy); above 130 µM in data set [8] (setting [11]).

In the case of `CC(=O)O[C@@H]1O[C@H]2OC(=O)[C@H](C)c3c([C@@]4(C)CCCC(C)(C)C4)ccc1c32` [Aplysulphurin (2), aplysulphurin], the “cytotoxicity towards uninfected primary human hepatocytes (in words)” value in data set [1] (5 µg/mL screen) is “no discernable cytotoxicity”. The inhibition at 5 µg/mL was 7.6% in data set [1] and 100% in data set [2]. The “concentration with 100% inhibition against P. falciparum infected liver cells” value in data set [2] (screen at fixed 5 µg/mL, 100% inhibition level (highest level)) is at most 13 µM. The compound further returned an inhibition at 25 µg/mL in data set [3] of 6.5%. Also, in data set [3], the inhibition at 50 µg/mL is 29.4%. The inhibition at 100 µg/mL in data set [3] was found to be 21.1%. Also, the IC50 in data set [7] (J774A.1 macrophages, single point determination, listed as 2, read-out: Leishmania donovani IC50 Infected Macrophage) is below 10 µM; in data set [7] (setting [10]), 3.1 µM; in data set [8] (setting [11]) it was 12 µM.

For the compound `COc1cc(NC(C)CCCN)c2ncccc2c1` (centres unmarked) [Primaquine, primaquine, reference compound], the inhibition at 5 µg/mL in data set [1] was 0%; in data set [2], 97.8%.

Turning to `CC(=O)O[C@@H]1OC2OC(=O)[C@H](C)C34OOC([C@@]5(C)CCCC(C)(C)C5)(CC[C@@H]1C23)O4` (some centres unmarked) [Ozonide (14), tetrahydroaplysulphurin ozonide], the inhibition at 5 µg/mL in data set [1] was determined as 18.6%. For the same compound, in data set [2], the inhibition at 5 µg/mL stood at 61.7%. Further, the “concentration with modest activity (60% inhibition) against P. falciparum infected liver cells” value in data set [2] (screen at fixed 5 µg/mL) is at most 15 µM. In data set [3], this compound displayed an inhibition at 25 µg/mL of 17.7%, an inhibition at 50 µg/mL of 40.6% and an inhibition at 100 µg/mL of 99.9%. The IC50 in data set [4] was determined as 17 µM. In data set [5] (setting [9]), the IC50 is 9.9 µM.

Turning to `C/C(=C1\CCCC1(C)C)[C@H]1CC[C@H]2C(=O)OC[C@H]2C1(C)C` [Glaciolide (6), glaciolide], the inhibition at 5 µg/mL in data set [1] was 4.5%. Further, in data set [2], the inhibition at 5 µg/mL came to 0%. In data set [3], the inhibition at 25 µg/mL was determined as 20%, the inhibition at 50 µg/mL stood at 20.8% and the inhibition at 100 µg/mL is 32.2%. Also, in data set [4], the IC50 was above 170 µM. Further, the IC50 in data set [5] (setting [9]) came out at 8.8 µM.

Consider `C[C@H]1C(=O)O[C@@H]2OC[C@@H]3CCC([C@@]4(C)CCCC(C)(C)C4)=C1[C@@H]32` [Cadlinolide C (8), cadlinolide C], for which the inhibition at 5 µg/mL in data set [1] turned out to be 0%. In addition, the inhibition at 5 µg/mL in data set [2] was 0%. In data set [3], this compound registered an inhibition at 25 µg/mL of 2.6%, an inhibition at 50 µg/mL of 35% and an inhibition at 100 µg/mL of 85.4%. Besides, in data set [4], the IC50 is above 160 µM. Besides, the IC50 in data set [5] (setting [9]) came out at 16 µM.

On to `C/C=C1/[C@@H]2[C@@H](OC(C)=O)O[C@@H](OC(C)=O)[C@@H]2CC[C@@H]1[C@@]1(C)CCCC(C)(C)C1` [9,11-Dihydrogracilin A (3), 9,11-dihydrogracilin A], for which the inhibition at 5 µg/mL in data set [1] is 1.1%. Besides, the inhibition at 5 µg/mL in data set [2] was 0%. For the same compound, in data set [3], the inhibition at 25 µg/mL amounted to 0%, the inhibition at 50 µg/mL was 29.1% and the inhibition at 100 µg/mL was 12.7%. Moreover, the IC50 in data set [7] (setting [10]) was 9.1 µM. Besides, the IC50 in data set [8] (setting [11]) is 23 µM.

As for `CC(=O)OC1OC(OC(C)=O)C2C(=O)C(C3(C)CCCC(C)(C)C3)CCC12` (centres unmarked) [8-Ketodihydrogracilin (13), 8-ketodihydrogracilin], the inhibition at 5 µg/mL in data set [1] was found to be 2.3%; in data set [2], 0%. This compound also came in with an inhibition at 25 µg/mL in data set [3] of 5.7%. Also, the inhibition at 50 µg/mL in data set [3] was 97.7%. In data set [3], this compound returned an inhibition at 100 µg/mL of 99.7%. Further, in data set [3] (tested at 100, 50 and 25 µg/mL), the “concentration at which activity against MRSA biofilm was exhibited” value is 50 µg/mL. The IC50 in data set [4] was 22 µM; in data set [6], 22 µM; in data set [5] (setting [9]), 4.5 µM; in data set [5] (setting [12]), 4.5 µM. In addition, in data set [5] (Table 3, SI = J774 IC50/pathogen IC50), the “Selectivity Index (SI), Leishmania donovani” value is recorded as 5.

For the compound `CCCCCCCCCCCCCCCCOP(=O)([O-])OCC[N+](C)(C)C` [Miltefosine, miltefosine, reference compound], the IC50 in data set [4] is above 120 µM; in data set [5] (setting [9]), 2.9 µM.

Turning to `COC(=O)C(C)c1c(C2(C)CCCC(C)(C)C2)ccc2c1C(O)OC2=O` (centres unmarked) [Dendrillin B (10), dendrillin B], the inhibition at 5 µg/mL in data set [1] and in data set [2] was 0% each time. Also, the inhibition at 25 µg/mL in data set [3] was 37%. The compound also registered an inhibition at 50 µg/mL in data set [3] of 19.4%. For the same compound, the inhibition at 100 µg/mL in data set [3] was found to be 90.7%. Besides, the IC50 is above 140 µM in data set [4], above 140 µM in data set [6], below 10 µM in data set [5] (setting [10]) and 3.5 µM in data set [5] (setting [12]).
